{"source": "patent US10975098B2", "about": "“Substituted aminothiazolopyrimidinediones for the treatment of virus infection” (Hoffmann-La Roche Inc., priority 2015, dated 2021)", "key": {"human TLR8": {"biological_target": "T1, human TLR8 (Homo sapiens, UniProt Q9NR97)", "T1 sequence (Q9NR97 27-1041)": "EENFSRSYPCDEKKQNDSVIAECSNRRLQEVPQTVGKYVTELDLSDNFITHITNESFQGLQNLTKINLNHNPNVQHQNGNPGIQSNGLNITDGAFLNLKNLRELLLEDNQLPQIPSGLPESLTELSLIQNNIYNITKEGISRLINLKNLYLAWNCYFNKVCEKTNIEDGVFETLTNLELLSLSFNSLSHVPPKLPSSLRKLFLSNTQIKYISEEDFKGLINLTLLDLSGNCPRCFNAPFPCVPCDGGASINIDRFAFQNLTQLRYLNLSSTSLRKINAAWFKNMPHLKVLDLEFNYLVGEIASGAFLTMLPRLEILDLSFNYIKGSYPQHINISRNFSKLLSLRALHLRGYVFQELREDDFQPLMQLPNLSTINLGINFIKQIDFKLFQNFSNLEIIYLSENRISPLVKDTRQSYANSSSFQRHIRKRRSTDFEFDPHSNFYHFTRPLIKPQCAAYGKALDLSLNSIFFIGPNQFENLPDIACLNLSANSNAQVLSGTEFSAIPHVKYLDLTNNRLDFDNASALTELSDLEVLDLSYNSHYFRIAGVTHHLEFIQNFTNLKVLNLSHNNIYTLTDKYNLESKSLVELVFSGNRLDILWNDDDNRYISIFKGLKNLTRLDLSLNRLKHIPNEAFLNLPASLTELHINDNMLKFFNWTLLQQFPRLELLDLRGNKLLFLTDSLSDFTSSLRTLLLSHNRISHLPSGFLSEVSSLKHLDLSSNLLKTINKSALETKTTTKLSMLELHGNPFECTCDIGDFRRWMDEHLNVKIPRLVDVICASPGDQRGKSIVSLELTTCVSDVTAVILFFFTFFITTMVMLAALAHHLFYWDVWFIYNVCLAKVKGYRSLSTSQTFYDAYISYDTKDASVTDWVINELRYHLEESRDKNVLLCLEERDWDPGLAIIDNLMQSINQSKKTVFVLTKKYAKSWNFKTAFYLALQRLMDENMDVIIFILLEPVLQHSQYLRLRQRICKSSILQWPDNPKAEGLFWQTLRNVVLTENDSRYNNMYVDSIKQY", "experiment": "HEK293-Blue-hTLR-8 cells assay (SEAP reporter)", "assay_type": "cell-based", "details": "TLR8 agonism, 20 hours incubation, 1% DMSO", "excerpt": "HEK293-Blue-hTLR-8 cells assay:\n(§1) A stable HEK293-Blue-hTLR-8 cell line was purchased from InvivoGen (Cat. #: hkb-htlr8, San Diego, Calif., USA). These cells were designed for studying the stimulation of human TLR8 by monitoring the activation of NF-κB. A SEAP (secreted embryonic alkaline phosphatase) reporter gene was placed under the control of the IFN-β minimal promoter fused to five NF-κB and AP-1-binding sites. The SEAP was induced by activating NF-κB and AP-1 via stimulating HEK-Blue hTLR8 cells with TLR8 ligands. Therefore the reporter expression was regulated by the NF-κB promoter upon stimulation of human TLR8. The cell culture supernatant SEAP reporter activity was determined using QUANTI-Blue™ kit (Cat. #: rep-qb 1, Invivogen, San Diego, Calif., USA) at a wavelength of 640 nm, a detection medium that turns purple to blue in the presence of alkaline phosphatase.\n(§2) HEK293-Blue-hTLR8 cells were incubated at a density of 250,000-450,000 cells/mL in a volume of 180 μL in a 96-well plate in Dulbecco's Modified Eagle's medium (DMEM) containing 4.5 g/L glucose, 50 U/mL penicillin, […], […], 2 mM L-glutamine, 10% (v/v) heat-inactivated fetal bovine serum for 24 hours. Then the HEK293-Blue-hTLR-8 cells were incubated with addition of 20 μL test compound in a serial dilution in the presence of final DMSO at 1% and perform incubation under 37° C. in a CO2 incubator for 20 hours. Then 20 μL of the supernatant from each well was incubated with 180 μL Quanti-blue substrate solution at 37° C. for 1-3 hours and the absorbance was read at 620-655 nm using a spectrophotometer. The signalling pathway that TLR8 activation leads to downstream NF-κB activation has been widely accepted, and therefore similar reporter assay was also widely used for evaluating TLR8 agonist.\n(§3) The compounds of the present invention were tested in the above assay for their TLR7 and TLR8 agonism activities as described herein and results are listed in Table 1."}, "human TLR7": {"biological_target": "T2, human TLR7 (Homo sapiens, UniProt Q9NYK1)", "T2 sequence (Q9NYK1 27-1049)": "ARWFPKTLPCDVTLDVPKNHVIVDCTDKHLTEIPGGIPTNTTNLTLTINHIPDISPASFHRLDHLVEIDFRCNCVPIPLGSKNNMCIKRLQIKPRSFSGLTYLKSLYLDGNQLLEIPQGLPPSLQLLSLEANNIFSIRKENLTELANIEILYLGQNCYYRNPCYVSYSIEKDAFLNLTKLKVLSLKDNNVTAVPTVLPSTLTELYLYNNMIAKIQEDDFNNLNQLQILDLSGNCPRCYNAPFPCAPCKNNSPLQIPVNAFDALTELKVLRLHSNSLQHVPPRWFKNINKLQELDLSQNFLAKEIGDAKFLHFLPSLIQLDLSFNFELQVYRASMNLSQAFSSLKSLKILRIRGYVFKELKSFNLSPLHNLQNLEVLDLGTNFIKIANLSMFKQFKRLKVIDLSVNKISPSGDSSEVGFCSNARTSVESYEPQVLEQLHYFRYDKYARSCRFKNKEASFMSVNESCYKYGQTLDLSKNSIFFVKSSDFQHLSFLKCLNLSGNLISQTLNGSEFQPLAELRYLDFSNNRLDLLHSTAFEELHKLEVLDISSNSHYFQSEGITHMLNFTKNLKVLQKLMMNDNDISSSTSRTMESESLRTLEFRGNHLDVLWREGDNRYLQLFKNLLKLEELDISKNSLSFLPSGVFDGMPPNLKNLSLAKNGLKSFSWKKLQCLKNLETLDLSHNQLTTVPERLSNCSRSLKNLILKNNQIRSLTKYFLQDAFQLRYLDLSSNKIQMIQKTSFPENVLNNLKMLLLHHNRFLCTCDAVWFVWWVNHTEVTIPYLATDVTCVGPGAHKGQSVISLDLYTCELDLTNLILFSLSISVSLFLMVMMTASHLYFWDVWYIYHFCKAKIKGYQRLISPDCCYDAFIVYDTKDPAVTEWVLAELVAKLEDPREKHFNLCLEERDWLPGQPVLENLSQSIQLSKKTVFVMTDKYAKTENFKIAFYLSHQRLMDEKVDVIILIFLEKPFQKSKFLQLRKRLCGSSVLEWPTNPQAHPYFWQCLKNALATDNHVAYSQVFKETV", "experiment": "HEK293-Blue-hTLR-7 cells assay (SEAP reporter)", "assay_type": "cell-based", "details": "TLR7 agonism, 20 hours incubation, 1% DMSO", "excerpt": "HEK293-Blue-hTLR-7 Cells Assay\nas §1, with “HEK293-Blue-hTLR-7” for “HEK293-Blue-hTLR-8”, “hkb-htlr7,” for “hkb-htlr8,”, “TLR7” for “TLR8”, “hTLR7” for “hTLR8”, “TLR7.” for “TLR8.”\nas §2, with “HEK293-Blue-hTLR7” for “HEK293-Blue-hTLR8”, “250,000˜450,000” for “250,000-450,000”, “HEK293-Blue-hTLR-7” for “HEK293-Blue-hTLR-8”, “TLR7” for “TLR8”, “TLR7 agonist (Tsuneyasu Kaisho and Takashi Tanaka, Trends in Immunology, Volume 29, Issue 7, July 2008, Pages 329. sci; Hiroaki Hemmi et al, Nature Immunology 3, 2002, 196-200).” for “TLR8 agonist.”\nas §3"}}}
{"smiles": "CC[C@H](O)[C@@H]1C[C@@H]([C@H](C)NC)[C@H](n2c(=O)sc3c(=O)[nH]c(N)nc32)O1", "note": "[Example 6, 5-Amino-3-[(2R,3S,5S)-5-[(1S)-1-hydroxypropyl]-3-[(1S)-1-(methylamino)ethyl]tetrahydrofuran-2-yl]-6H-thiazolo[4,5-d]pyrimidine-2,7-dione]", "values": [{"measurement": "EC50", "setting": "human TLR8", "result": 4, "unit": "µM"}, {"measurement": "EC50", "setting": "human TLR7", "result": 250, "unit": "µM"}]}
{"smiles": "CC[C@H](O)[C@@H]1C[C@@H]([C@H](C)NCc2ccccc2)[C@H](n2c(=O)sc3c(=O)[nH]c(N)nc32)O1", "note": "[Example 7, 5-Amino-3-[(2R,3S,5S)-3-[(1S)-1-(benzylamino)ethyl]-5-[(1S)-1-hydroxypropyl]tetrahydrofuran-2-yl]-6H-thiazolo[4,5-d]pyrimidine-2,7-dione]", "values": [{"measurement": "EC50", "setting": "human TLR8", "result": 2.2, "unit": "µM"}, {"measurement": "EC50", "setting": "human TLR7", "result": 3.4, "unit": "µM"}]}
{"smiles": "CC[C@H](O)[C@@H]1C[C@@H]([C@@H](C)NC2CC2)[C@H](n2c(=O)sc3c(=O)[nH]c(N)nc32)O1", "note": "[Example 4, 5-Amino-3-[(2R,3S,5S)-3-[(1R)-1-(cyclopropylamino)ethyl]-5-[(1S)-1-hydroxypropyl]tetrahydrofuran-2-yl]-6H-thiazolo[4,5-d]pyrimidine-2,7-dione]", "values": [{"measurement": "EC50", "setting": "human TLR8", "result": 94, "unit": "µM"}, {"measurement": "EC50", "setting": "human TLR7", "result": 3.5, "unit": "µM"}]}
{"smiles": "CCCN[C@H](C)[C@@H]1C[C@@H]([C@@H](O)CC)O[C@H]1n1c(=O)sc2c(=O)[nH]c(N)nc21", "note": "[Example 3, 5-Amino-3-[(2R,3S,5S)-5-[(1S)-1-hydroxypropyl]-3-[(1R)-1-(propylamino)ethyl]tetrahydrofuran-2-yl]-6H-thiazolo[4,5-d]pyrimidine-2,7-dione]", "values": [{"measurement": "EC50", "setting": "human TLR8", "result": 125, "unit": "µM"}, {"measurement": "EC50", "setting": "human TLR7", "result": 7.7, "unit": "µM"}]}
{"smiles": "CC[C@H](O)[C@@H]1C[C@@H]([C@@H](C)NC)[C@H](n2c(=O)sc3c(=O)[nH]c(N)nc32)O1", "note": "[Example 2, 5-Amino-3-[(2R,3S,5S)-5-[(1S)-1-hydroxypropyl]-3-[(1R)-1-(methylamino)ethyl]tetrahydrofuran-2-yl]-6H-thiazolo[4,5-d]pyrimidine-2,7-dione]", "values": [{"measurement": "EC50", "setting": "human TLR8", "result": 27, "unit": "µM"}, {"measurement": "EC50", "setting": "human TLR7", "result": 81, "unit": "µM"}]}
{"smiles": "CC[C@H](O)[C@@H]1C[C@@H]([C@@H](C)N(C)C)[C@H](n2c(=O)sc3c(=O)[nH]c(N)nc32)O1", "note": "[Example 8, 5-Amino-3-[(2R,3S,5S)-3-[(1R)-1-(dimethylamino)ethyl]-5-[(1S)-1-hydroxypropyl]tetrahydrofuran-2-yl]-6H-thiazolo[4,5-d]pyrimidine-2,7-dione]", "values": [{"measurement": "EC50", "setting": "human TLR8", "result": 185, "unit": "µM"}, {"measurement": "EC50", "setting": "human TLR7", "result": 82, "unit": "µM"}]}
{"smiles": "CC[C@H](O)[C@@H]1C[C@@H]([C@H](C)N)[C@H](n2c(=O)sc3c(=O)[nH]c(N)nc32)O1", "note": "[Example 1-A, 5-Amino-3-[(2R,3S,5S)-3-[(1S)-1-aminoethyl]-5-[(1S)-1-hydroxypropyl]tetrahydrofuran-2-yl]-6H-thiazolo[4,5-d]pyrimidine-2,7-dione]", "values": [{"measurement": "EC50", "setting": "human TLR8", "result": 1.3, "unit": "µM"}, {"measurement": "EC50", "setting": "human TLR7", "result": 75, "unit": "µM"}]}
{"smiles": "CC[C@H](O)[C@@H]1C[C@@H]([C@@H](C)N)[C@H](n2c(=O)sc3c(=O)[nH]c(N)nc32)O1", "note": "[Example 1-B, 5-amino-3-[(2R,3S,5S)-3-[(1R)-1-aminoethyl]-5-[(1S)-1-hydroxypropyl]tetrahydrofuran-2-yl]-6H-thiazolo[4,5-d]pyrimidine-2,7-dione]", "values": [{"measurement": "EC50", "setting": "human TLR8", "result": 55, "unit": "µM"}, {"measurement": "EC50", "setting": "human TLR7", "result": 101, "unit": "µM"}]}
{"smiles": "CC[C@H](O)[C@@H]1C[C@@H]([C@@H](C)NCc2ccccc2)[C@H](n2c(=O)sc3c(=O)[nH]c(N)nc32)O1", "note": "[Example 5, 5-Amino-3-[(2R,3S,5S)-3-[(1R)-1-(benzylamino)ethyl]-5-[(1S)-1-hydroxypropyl]tetrahydrofuran-2-yl]-6H-thiazolo[4,5-d]pyrimidine-2,7-dione]", "values": [{"measurement": "EC50", "setting": "human TLR8", "result": 85, "unit": "µM"}, {"measurement": "EC50", "setting": "human TLR7", "result": 3.7, "unit": "µM"}]}
